Measured values published in patent US9809540B2, “Hydrobromide salt of N-(4-chloro-2-hydroxy-3-((3S)-3-piperidinylsulfonyl)phenyl-N'-(3-fluoro-2-methylphenyl)urea” (GlaxoSmithKline Intellectual Property (No.2) Limited, priority 2013, dated 2017).
Values after ≈ are worked out from the molar mass of the structure shown. Structures can show the parent of a compound that is named as a salt.

How the values were obtained:
[1] = Solubility in simulated gastric/intestinal fluids and pH media; format: physicochemical; conditions: for solubility at 0.5 h / solubility at 4 h / solubility at 24 h / solubility at 0.5 hr / solubility at 4 hr / solubility at 24 hr: thermodynamic from solid
[2] = Dissolution profiles (capsule) in pH1.6 simulated gastric fluid and pH 4 citrate buffer; format: physicochemical
Procedure: Dissolution profiles of the HBr salt (50 mg as free form) in a capsule compared with the free base in pH1.6 simulated gastric fluid and in pH 4 citrate buffer. The HBr salt is better.

## Cc1c(F)cccc1NC(=O)Nc1ccc(Cl)c(S(=O)(=O)[C@H]2CCCNC2)c1O [HBr Salt, hydrobromide salt of the enantiomer N-{4-chloro-2-hydroxy-3-[(3S)-3-piperidinylsulfonyl]phenyl}-N′-(3-fluoro-2-methylphenyl)urea]
[1]; Phares FaSSIF pH 6.5, 4 hr
  Solubility: 0.272 mg/mL
[1]; SGF (simulated gastric fluid), pH 1.6, simulated gastric fluid, Batch 1, SGF pH 1.6, 0.5 hr
  solubility at 0.5 h: 0.77 mg/mL
[1]; SGF (simulated gastric fluid), pH 1.6, simulated gastric fluid, Batch 1, SGF pH 1.6, 4 hr
  solubility at 4 h: 0.787 mg/mL
[1]; SGF (simulated gastric fluid), pH 1.6, simulated gastric fluid, Batch 1, SGF pH 1.6, 24 hr
  solubility at 24 h: 0.795 mg/mL
[1]; SGF (simulated gastric fluid), pH 1.6, simulated gastric fluid, Batch 2, SGF pH 1.6, 0.5 hr
  solubility at 0.5 h: 0.414 mg/mL
[1]; SGF (simulated gastric fluid), pH 1.6, simulated gastric fluid, Batch 2, SGF pH 1.6, 4 hr
  solubility at 4 h: 0.647 mg/mL
[1]; SGF (simulated gastric fluid), pH 1.6, simulated gastric fluid, Batch 2, SGF pH 1.6, 24 hr
  solubility at 24 h: 0.8 mg/mL
[1]; SGF (simulated gastric fluid), pH 1.6, simulated gastric fluid, Batch 3, SGF pH 1.6, 0.5 hr
  solubility at 0.5 h: 0.757 mg/mL
[1]; at higher pH's and in simulated intestinal fluids
  Solubility compared with the free base: higher than the free base
[1]; fasted-state simulated intestinal fluid (Phares FaSSIF), pH 6.5, fassif, Batch 1, Phares FaSSif pH 6.5, 0.5 hr
  solubility at 0.5 hr: 0.42 mg/mL
[1]; fasted-state simulated intestinal fluid (Phares FaSSIF), pH 6.5, fassif, Batch 1, Phares FaSSif pH 6.5, 4 hr
  solubility at 4 hr: 0.384 mg/mL
[1]; fasted-state simulated intestinal fluid (Phares FaSSIF), pH 6.5, fassif, Batch 1, Phares FaSSif pH 6.5, 24 hr
  solubility at 24 hr: 0.064 mg/mL
[1]; fasted-state simulated intestinal fluid (Phares FaSSIF), pH 6.5, fassif, Batch 2, Phares FaSSif pH 6.5, 0.5 hr
  solubility at 0.5 hr: 0.27 mg/mL
[1]; fasted-state simulated intestinal fluid (Phares FaSSIF), pH 6.5, fassif, Batch 2, Phares FaSSif pH 6.5, 4 hr
  solubility at 4 hr: 0.379 mg/mL
[1]; fasted-state simulated intestinal fluid (Phares FaSSIF), pH 6.5, fassif, Batch 2, Phares FaSSif pH 6.5, 24 hr
  solubility at 24 hr: 0.079 mg/mL
[1]; fasted-state simulated intestinal fluid (Phares FaSSIF), pH 6.5, fassif, Batch 3, Phares FaSSif pH 6.5, 0.5 hr
  solubility at 0.5 hr: 0.459 mg/mL
[1]; fasted-state simulated intestinal fluid (Phares FaSSIF), pH 6.5, fassif, Batch 3, Phares FaSSif pH 6.5, 4 hr
  solubility at 4 hr: 0.227 mg/mL
[1]; fasted-state simulated intestinal fluid (Phares FaSSIF), pH 6.5, fassif, Batch 3, Phares FaSSif pH 6.5, 24 hr
  solubility at 24 hr: 0.056 mg/mL
[1]; fed-state simulated intestinal fluid (Phares FeSSIF), fessif, Batch 1, Phares FeSSIF pH .5, 0.5 hr
  solubility at 0.5 hr: 0.838 mg/mL
[1]; fed-state simulated intestinal fluid (Phares FeSSIF), fessif, Batch 1, Phares FeSSIF pH .5, 4 hr
  solubility at 4 hr: 0.833 mg/mL
[1]; fed-state simulated intestinal fluid (Phares FeSSIF), fessif, Batch 1, Phares FeSSIF pH .5, 24 hr
  solubility at 24 hr: 0.788 mg/mL
[1]; fed-state simulated intestinal fluid (Phares FeSSIF), fessif, Batch 2, Phares FeSSIF pH .5, 0.5 hr
  solubility at 0.5 hr: 0.478 mg/mL
[1]; fed-state simulated intestinal fluid (Phares FeSSIF), fessif, Batch 2, Phares FeSSIF pH .5, 4 hr
  solubility at 4 hr: 0.846 mg/mL
[1]; fed-state simulated intestinal fluid (Phares FeSSIF), fessif, Batch 2, Phares FeSSIF pH .5, 24 hr
  solubility at 24 hr: 0.834 mg/mL
[1]; fed-state simulated intestinal fluid (Phares FeSSIF), fessif, Batch 3, Phares FeSSIF pH .5, 0.5 hr
  solubility at 0.5 hr: 0.724 mg/mL
[1]; fed-state simulated intestinal fluid (Phares FeSSIF), pH 6.5, fessif, Batch 3, Phares FeSSIF pH .5, 4 hr
  solubility at 4 hr: 0.841 mg/mL
[1]; fed-state simulated intestinal fluid (Phares FeSSIF), pH 6.5, fessif, Batch 3, Phares FeSSIF pH .5, 24 hr
  solubility at 24 hr: 0.34 mg/mL
[1]; higher pH
  Solubility at higher pH as compared to the free base: improved
[1]; pH 2, aqueous buffer, Batch 3, pH 2.0, 0.5 hr
  solubility at 0.5 h: 0.605 mg/mL
[1]; pH 2, aqueous buffer, Batch 3, pH 2.0, 4 hr
  solubility at 4 h: 0.635 mg/mL
[1]; pH 2, aqueous buffer, Batch 3, pH 2.0, 24 hr
  solubility at 24 h: 0.609 mg/mL
[1]; pH 2, aqueous buffer, pH 2.0, 24 hr
  solubility at 24 h: 0.609 mg/mL
[1]; pH 4, aqueous buffer, Batch 3, pH 4.0, 0.5 hr
  solubility at 0.5 h: 0.685 mg/mL
[1]; pH 4, aqueous buffer, Batch 3, pH 4.0, 4 hr
  solubility at 4 h: 0.67 mg/mL
[1]; pH 4, aqueous buffer, Batch 3, pH 4.0, 24 hr
  solubility at 24 h: 0.609 mg/mL
[1]; pH 4, aqueous buffer, pH 4.0, 4 hr
  solubility at 4 h: 0.67 mg/mL
[1]; pH 6, aqueous buffer, Batch 3, pH 6.0, 0.5 hr
  solubility at 0.5 h: 0.194 mg/mL
[1]; pH 6, aqueous buffer, Batch 3, pH 6.0, 4 hr
  solubility at 4 h: 0.013 mg/mL
[1]; pH 6, aqueous buffer, Batch 3, pH 6.0, 24 hr
  solubility at 24 h: 0.005 mg/mL
[1]; pH 8, aqueous buffer, Batch 3, pH 8.0, 0.5 hr
  solubility at 0.5 h: 0.052 mg/mL
[1]; pH 8, aqueous buffer, Batch 3, pH 8.0, 4 hr
  solubility at 4 h: 0.013 mg/mL
[1]; pH 8, aqueous buffer, Batch 3, pH 8.0, 24 hr
  solubility at 24 h: 0.008 mg/mL
[1]; pH 8, aqueous buffer, pH 8.0, 0.5 hr
  solubility at 0.5 h: 0.052 mg/mL
[1]; pH 8, aqueous buffer, pH 8.0, 4 hr
  solubility at 4 h: 0.013 mg/mL
[1]; pH 8, aqueous buffer, pH 8.0, 24 hr
  solubility at 24 h: 0.008 mg/mL
[1]; simulated gastric fluid (SGF), pH 1.6, simulated gastric fluid, Batch 3, SGF pH 1.6, 4 hr
  solubility at 4 hr: 0.795 mg/mL
[1]; simulated gastric fluid (SGF), pH 1.6, simulated gastric fluid, Batch 3, SGF pH 1.6, 24 hr
  solubility at 24 hr: 0.779 mg/mL
[1]; simulated intestinal fluids, compared with free base
  Solubility in simulated intestinal fluids over time: does reduce with time but is still much higher than the equivalent free base solubility
[2]; 50 mg as free form in a capsule, pH1.6 simulated gastric fluid and pH 4 citrate buffer, FIGS. 1 and 2
  Dissolution profile: better
[2]; FIG. 1, low gastric pH
  Dissolution rate at low gastric pH: enhanced dissolution rate without gelling
[2]; FIG. 2, elevated gastric pH
  Rate of dissolution at an elevated gastric pH: greatest rate of dissolution
[2]; higher pH
  Dissolution profile at higher pH as compared to the free base: improved

## Cc1c(F)cccc1NC(=O)Nc1ccc(Cl)c(S(=O)(=O)[C@H]2CCCNC2)c1O [Micronised free base, N-{4-chloro-2-hydroxy-3-[(3S)-3-piperidinylsulfonyl]phenyl}-N′-(3-fluoro-2-methylphenyl) urea, reference compound]
[1]; Phares FaSSIF pH 6.5, 0.5 hr
  Solubility: 0.009 mg/mL (≈ 20.4 µM)
[1]; Phares FaSSIF pH 6.5, 4 hr
  Solubility: 0.018 mg/mL (≈ 40.7 µM)
[1]; Phares FaSSIF pH 6.5, 24 hr
  Solubility: 0.01 mg/mL (≈ 22.6 µM)
[1]; Phares FeSSIF pH 6.5, 0.5 hr
  Solubility: 0.019 mg/mL (≈ 43 µM)
[1]; Phares FeSSIF pH 6.5, 4 hr
  Solubility: 0.024 mg/mL (≈ 54.3 µM)
[1]; Phares FeSSIF pH 6.5, 24 hr
  Solubility: 0.025 mg/mL (≈ 56.6 µM)
[1]; SGF (simulated gastric fluid), pH 1.6, simulated gastric fluid, SGF pH1.6, 0.5 hr
  solubility at 0.5 h: 0.715 mg/mL (≈ 1620 µM)
[1]; SGF (simulated gastric fluid), pH 1.6, simulated gastric fluid, SGF pH1.6, 4 hr
  solubility at 4 h: 0.808 mg/mL (≈ 1830 µM)
[1]; SGF (simulated gastric fluid), pH 1.6, simulated gastric fluid, SGF pH1.6, 24 hr
  solubility at 24 h: 0.842 mg/mL (≈ 1910 µM)
[1]; pH 2.0, 24 hr
  Solubility: 0.697 mg/mL (≈ 1580 µM)
[1]; pH 2, aqueous buffer, pH 2.0, 0.5 hr
  solubility at 0.5 h: 0.601 mg/mL (≈ 1360 µM)
[1]; pH 2, aqueous buffer, pH 2.0, 4 hr
  solubility at 4 h: 0.662 mg/mL (≈ 1500 µM)
[1]; pH 4.0, 0.5 hr
  Solubility: 0.021 mg/mL (≈ 47.5 µM)
[1]; pH 4.0, 4 hr
  Solubility: 0.023 mg/mL (≈ 52 µM)
[1]; pH 4.0, 24 hr
  Solubility: 0.024 mg/mL (≈ 54.3 µM)
[1]; pH 6, aqueous buffer, pH 6.0, 24 hr
  solubility at 24 h: 0.004 mg/mL (≈ 9.05 µM)
[1]; pH 8.0, 0.5 hr
  Solubility: 0.005 mg/mL (≈ 11.3 µM)
[1]; pH 8.0, 4 hr
  Solubility: 0.005 mg/mL (≈ 11.3 µM)
[1]; pH 8.0, 24 hr
  Solubility: 0.005 mg/mL (≈ 11.3 µM)
